Laboratory results: patent EP0663826B1, “AMINO ACIDS CONTAINING PARENTERAL FORMULATIONS FOR THE TREATMENT OF HYPOTENSION AND RELATED PATHOLOGIES” (BOARD OF REGENTS THE UNIVERSITY OF TEXAS SYSTEM, priority 1991, dated 1993)

Experiments:
[1] = system: hypotension associated with the administration of TNF in the dog; test: TNF-induced hypotension in the dog; format: in vivo, dogs; conditions: L-arginine to previously untreated normotensive dogs
Protocol: Recombinant human TNF, specific activity 2 x 10^7 units/mg, was from the Dainippon Chemical Corporation, Tokyo, Japan. TNF was administered at a dose of 10 µg//kg in a volume of 10 ml of phosphate buffered saline containing 17 mg/ml of dog albumin. […] Arginine was obtained from Sigma Chemical Company, St. Louis, Mo.
Four conditioned mongrel dogs, 2 males and 2 females, weighing 28 to 30 kg, were studied. Care of the animals were in accordance with the recommendations of the American Association for Accreditation of Laboratory Animals [DHEW(DHHS) publication no. (NIH) 78-23, revised, 1978]. On the day of the experiment, the dogs were fasted overnight. They were anesthetized with phenobarbital (25 mg/kg). The animals were then intubated orally with a #10 fr. endotracheal tube and ventilated with a Harvard pump ventilator at a rate of 14 breaths per minute and a tidal volume of 15 ml/kg. An arterial line was percutaneously placed in the femoral artery on the day of the experiment.
Mean (electronic) and phasic systemic arterial pressures (SAP) were continuously recorded on a Hewlett-Packard recording system (model 7758B) using strain gauge manometers (Hewlett-Packard model 1290A) which were connected to the arterial line. Heart rate (HR) was determined from an EKG tracing and continuously recorded on the Hewlett-Packard recording system. Oxyhemoglobin saturation (SaO2) was obtained using a pulse oximeter (BIOX 111, Boulder, CO). Continuous time-series records of SAP, HR, and SaO2 were obtained using a Lab Master analog-to-digital convertor (16 channel, 12 bit, 30 kHz; Scientific Solutions, Inc.) sampling at 55 Hz and storing the 6 sec averages on a magnetic disk.

[2] = system: endotoxin-induced shock in dogs; test: Endotoxin-induced hypotension in dogs (with nitroglycerin and control dogs); format: in vivo
Protocol: Animals: Studies were carried out on 12 conditioned mongrel dogs (9 males and 3 females) weighing 22-32 kg (avg=25.3 kg). Animal care was in accordance with the recommendations of the American Association for Accreditation of Laboratory Animal Care, and met all standards prescribed by the Guide for the Care and Use of Laboratory Animals (Guide for the Care and Use of Laboratory Animals (1978) Dept. of Health, Education and Welfare, Washington, D.C. (Publ. No. 78-23). Animal protocols were approved by The University of Texas Animal Welfare committee. The dogs were fasted overnight prior to the day of experimentation. They were anesthetized with sodium pentobarbital (25 mg/kg i.v.). Dogs were then endotracheally intubated and ventilated with a piston-driven respirator (Harvard instruments) using room air at a tidal volume of 15 ml/kg and at a rate of 12 to 14 breaths per minute, adjusted to achieve a normal arterial pH and pCO2 (Instrumentation Laboratories lL1302 pH/Blood Gas Analyzer). Catheters were placed percutaneously into the femoral and pulmonary arteries; In the latter, a flow-directed thermal-dilation catheter was used (Abbott Critical Care Systems).
Physiologic measurements: Mean SAP and heart rate were continuously monitored (Parametron 7048 Monitoring System, Roche) and stored on a magnetic disk using an analog-to-digital converter (Scientific Solutions, Inc.). Cardiac output (CO) was determined as the mean of six measurements by thermal-dilution. Systemic vascular resistance was calculated as (SAP X80)/CO and expressed as dynes-sec/cm^5 (kg/s·cm^4).
Protocol: After the blood pressure and heart rate stabilized, endotoxin (40 µg/kg, in 10 ml of phosphate-buffered saline (PBS), pH 7.4) was infused i.v. over 2 minutes. This dose of endotoxin typically induces severe and often lethal cardiovascular collapse in the dog. Blood pressure was monitored, and when either SAP fell below 60 mm Hg or a stable nadir in systemic arterial pressure (SAP) was maintained for 10 minutes, L-NMA was administered (20 mg/kg in 5 ml of PBS i.v. over 1 min.). In most experiments, L-arginine (400 mg/kg in 20 ml PBS) was administered ten minutes later by i.v. infusion over 2 minutes. In control experiments, dogs without prior exposure to endotoxin received L-NMA alone. To simulate the hypotension observed in dogs receiving endotoxin, one group of dogs received a continuous i.v. infusion of nitroglycerin (2 mg/ml) at a rate adjusted to maintain the SAP at 60-70 mm Hg. Nitroglycerin-treated dogs then received L-NMA (20 mg/kg) and 20 minutes later L-arginine was administered ([…]).
Statistics: Statistical significance was evaluated using Student's test and either a one-tailed or two-tailed analysis as appropriate for comparisons.

## N=C(N)NCCC[C@H](N)C(=O)O [L-arginine]
[1]
  effect on blood pressure: not affected
[2]; Figure 6 dog, endotoxin and 2 doses L-NMA
  ΔSAP after L-arginine: -77 mm Hg
[2]; Study 1: Endotoxin-treated dogs (n=4), means ± S.E., same sequence, baseline 2.99 ± 0.32
  Cardiac Output: 2.99 ± 0.32 L/min
[2]; Study 1: Endotoxin-treated dogs (n=4), means ± S.E., same sequence, baseline 119.5 ± 6.0
  Heart Rate: 119.5 ± 6.0 beats/min
[2]; Study 1: Endotoxin-treated dogs (n=4), means ± S.E., same sequence, baseline 3565 ± 454
  Systemic Vascular Resistance: 3565 ± 454 dynes-sec/cm^5
[2]; Study 1: Endotoxin-treated dogs (n=4), means ± S.E., sequence endotoxin 40 µg/kg, L-NMA 20 mg/kg, 10 min later L-arginine 400 mg/kg (measured 2 min later), baseline 128.3 ± 9.4
  Systemic Arterial Pressure: 128.3 ± 9.4 mmHg
[2]; Study 1: Endotoxin-treated dogs (n=4), means ± S.E., value in brackets
  Systemic Vascular Resistance: 3.565 ± 0.454 Kg/s·cm^4
[2]; Study 2: Nitroglycerin-treated dogs (n=3), means ± S.E., baseline 3.14 ± 0.21
  Cardiac Output: 5.15 ± 1.08 L/min
[2]; Study 2: Nitroglycerin-treated dogs (n=3), means ± S.E., baseline 143.7 ± 12.1
  Heart Rate: 148.7 ± 19.9 beats/min
[2]; Study 2: Nitroglycerin-treated dogs (n=3), means ± S.E., baseline 3294 ± 74
  Systemic Vascular Resistance: 1088 ± 491 dynes-sec/cm^5
[2]; Study 2: Nitroglycerin-treated dogs (n=3), means ± S.E., continuous nitroglycerin (2 mg/ml) titrated to SAP 65 mm Hg, then L-NMA 20 mg/kg, then L-arginine, baseline 129.3 ± 10.2
  Systemic Arterial Pressure: 57.0 ± 13.0 mmHg
[2]; Study 2: Nitroglycerin-treated dogs (n=3), value in brackets
  Systemic Vascular Resistance: 1.088 ± 0.491 Kg/s·cm^4
[2]; control dogs, L-arginine 400 mg/kg
  effect on the pressor effect of L-NMA: fully reversed
